# Like-named read-outs stand apart in the source and are kept apart here.
# What was measured:
# 5HT2A [1] = type: cell-based; details: result in words
# Rat cortical neurons = experiment: Neurite Outgrowth in Primary Neuronal Cultures Assay (Procedure B); type: cell-based; parameters: key: A: Statistically significant mean increase as a percent of DMSO control at 10 μM or less; B: No statistically significant mean increase as a percent of DMSO control at 10 μM or less; details: 72 h, percent of DMSO control at 10 μM or less
# Description: Neurite Outgrowth in Primary Neuronal Cultures Assay (Procedure B). Changes in the pattern of neurite outgrowth have been implicated in psychiatric and neurodegenerative disorders as well as traumatic injuries. The discovery of new compounds that can positively affect neuritogenesis are important for developing new therapeutics for neurological diseases. Measurement of neurite outgrowth of rat cortical neurons using an automated image-based assay was used to determine the neuroplastic effects of the compounds of the present invention. The neurite outgrowth assay was performed at Neurofit SAS (France) as described below.
# Pregnant Wistar rats (Janvier; France) were used for the study. They were delivered 6 days before their use. Upon arrival at Neurofit animal facility, they were housed one per cage and maintained in a room with controlled temperature (21-22° C.) and a reversed light-dark cycle (12 h/12 h; lights on: 17:30-05:30; lights off: 05:30-17:30) with food and water available ad libitum.
# Female Wistar rats of 17 days gestation were killed by cervical dislocation and the fetuses were removed from the uterus. Their brains were placed in ice-cold medium of Leibovitz (L15, Gibco, Fisher bioblock, France). Cortices were dissected and meninges were carefully removed. The cortical neurons were dissociated by trypsinization for 30 min at 37° C. (trypsin-EDTA, Gibco) in presence of 0.1 mg/ml DNAse I (Roche, France). The reaction was stopped by addition of Dulbecco's Modified Eagle Medium (DMEM; Gibco) with 10% of fetal bovine serum (FBS; Gibco). The suspension was triturated with a 10-ml pipette and using a needle syringe 21G and centrifuged at 350×g for 10 min at room temperature. The pellet of dissociated cells was resuspended in a medium consisting of Neurobasal (Gibco) supplemented with 2% B27 supplement (Gibco), 0.5 mM L-Glutamine (Gibco), an antibiotic-antimicotic mixture. Viable cells were counted in a Neubauer cytometer using the trypan blue exclusion test (Sigma). Cells were seeded at a density of 10000 cells per well in 96-well plate (Costar) precoated with poly-L-lysine. Test compound at different concentrations were added to the cultures. Donepezil (positive control) was tested at 250 nM.
# After 72 h (3 days) of plating, cultures were fixed with paraformaldehyde in PBS (4%, Sigma) for 30 min at 4° C. Then, cells were successively permeabilized with 0.1% Triton X100 for 30 min, saturated with PBS containing 3% of BSA and were incubated 1 h with anti-beta III tubulin antibody (Sigma) at 1/10 000 in PBS containing 0.5% of BSA. Cells were washed three times with PBS containing 0.5% of BSA, and they were incubated 1 h with goat anti-mouse antibody coupled with AF488 (Invitrogen A11001) diluted at 1/1000 in PBS containing 0.5% of BSA. Finally, nuclei were staining with DAPI 1 mg/ml at 1/1000 in PBS containing 0.5% of BSA. After rinsing with PBS, the plate was filmed and neurite networks were examined and analyzed using High-Content Screening (CellInsight, Thermo Scientific). The average number of neurites per neuron and the average total length of neurites per neuron were the main parameters analyzed. Analysis of data was performed using analysis of variance (ANOVA). The Fisher's Protected Least Significant Difference test was used for multiple comparisons. A p value<0.05 was considered significant. The software used is StatView 5.0 from SAS Institut.
# In some embodiments, a compound of the present invention increases the pattern of neurite outgrowth. In some embodiments, a compound of the present invention increases neurite average length compared to a control. In some embodiments, a compound of the present invention increases neurite branch points compared to a control.
# 5HT2A [2] = target: T1, 5HT2A (Homo sapiens, UniProt P28223); experiment: Serotonin 5-HT2A in vitro radioligand binding competition assay ([3H]-DOI); parameters: purchased Epics Therapeutics S.A. (Belgium) FAST-0505B
# T1 sequence (P28223 whole entry): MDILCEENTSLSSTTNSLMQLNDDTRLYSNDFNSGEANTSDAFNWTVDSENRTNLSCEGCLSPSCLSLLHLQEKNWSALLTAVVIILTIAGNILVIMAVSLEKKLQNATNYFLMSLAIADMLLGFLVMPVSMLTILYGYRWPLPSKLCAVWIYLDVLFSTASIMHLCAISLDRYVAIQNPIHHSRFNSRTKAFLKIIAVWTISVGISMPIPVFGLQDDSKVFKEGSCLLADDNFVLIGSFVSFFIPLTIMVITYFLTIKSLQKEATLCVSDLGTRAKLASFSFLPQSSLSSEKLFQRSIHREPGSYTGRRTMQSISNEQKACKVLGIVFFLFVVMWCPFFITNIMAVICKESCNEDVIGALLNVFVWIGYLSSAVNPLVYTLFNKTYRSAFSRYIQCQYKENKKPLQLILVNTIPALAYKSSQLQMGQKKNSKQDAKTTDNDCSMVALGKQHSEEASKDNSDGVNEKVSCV
# Protocol: Serotonin 5-HT2A In Vitro Radioligand Binding Competition Assay. The 5-HT2A radioligand binding competition assay was performed at Epics Therapeutics S.A. (Belgium, FAST-0505B) using conventional methods. Briefly, competition binding is performed in duplicate in the wells of a 96 well plate (Master Block, Greiner, 786201) containing binding buffer (optimized for each receptor), membrane extracts (amount of protein/well optimized for each receptor), radiotracer [^3H]-DOI (final concentration optimized for each receptor) and test compound. Nonspecific binding is determined by co-incubation with 200-fold excess of cold competitor. The samples are incubated in a final volume of 0.1 ml at a temperature and for a duration optimized for each receptor and then filtered over filter plates. Filters are washed six times with 0.5 ml of ice-cold washing buffer (optimized for each receptor) and 50 μl of Microscint 20 (Packard) are added in each well. The plates are incubated 15 min on an orbital shaker and then counted with a TopCount™ for 1 min/well.
# (§1) The compounds provided herein were tested in the Serotonin 5-HT2A and 5-HT2C in vitro radioligand binding and cellular IPOne agonism assays. The binding and agonism functional potencies of several compound provided herein compounds (as indicated by their IC50s or EC50s) are shown in Table 11.
# 5HT2A [3] = target: T1, 5HT2A; experiment: Serotonin 5-HT2A in vitro cellular IPOne agonism assay; type: cell-based; parameters: host or cells: CHO-K1
# Protocol: Serotonin 5-HT2A In Vitro Cellular IPOne Agonism Assay. The 5-HT2A IPOne HTRF assay was performed at Epics Therapeutics S.A. (Belgium, FAST-0505I) using conventional methods. Briefly, CHO-K1 cells expressing human recombinant 5-HT2A receptor grown to mid-log phase in culture media without antibiotics were detached with PBS-EDTA, centrifuged, and resuspended in medium without antibiotics buffer. 20,000 cells are distributed in a 96 well plate and incubated overnight at 37° C. with 5% CO2.
# For agonist testing, the medium is removed and 20 μl of assay buffer plus 20 μl of test compound or reference agonist are added in each well. The plate is incubated for 60 min. at 37° C. with 5% CO2.
# After addition of the lysis buffer containing IP1-d2 and anti-IP1 cryptate detection reagents, plates are incubated 1-hour at room temperature, and fluorescence ratios are measured according to the manufacturer specification, with the HTRF kit.
# as §1
# [4] = [3H]-DOI competition, membrane extracts, read-out: 5-HT2A Radioligand Binding Activity
# [5] = CHO-K1 cells, IPOne HTRF, read-out: 5-HT2A IPOne Agonism Activity
Compound,activation of 5HT2A sensor assay in agonist mode (5HT2A [1]),Increase in Neurite Length (Rat cortical neurons),Increase in Neurite Number (Rat cortical neurons),IC50 (5HT2A [2]; [4]) [µM],EC50 (5HT2A [3]; [5]) [µM],IC50 (5HT2A [2]) [µM],EC50 (5HT2A [3]) [µM]
CCN(CC)C(=O)[C@@H]1C=C2c3cccc4[nH]c(Br)c(c34)C[C@H]2N(C)C1 [BOL148],do not activate the 5HT2A sensor assay in agonist mode,–,–,–,–,–,–
"CN(C)CCc1c[nH]c2ccccc12 [DMT, N,N-dimethyltryptamine]",activate the 5HT2A sensor assay in agonist mode,–,–,–,–,–,–
COc1cc(CC(C)N)c(OC)cc1I (stereo not drawn) [DOI],activate the 5HT2A sensor assay in agonist mode,–,–,–,–,–,–
"COc1ccc2c(ccn2CC(C)(C)N(C)C)c1 [Example 1, 1-(5-methoxy-1H-indol-1-yl)-N,N,2-trimethylpropan-2-amine]",–,A,A,> 10,> 10,–,–
"COc1ccc2c(ccn2CC2(N(C)C)CC2)c1 [Example 2, 1-((5-methoxy-1H-indol-1-yl)methyl)-N,N-dimethylcyclopropan-1-amine]",–,B,B,> 10,> 10,–,–
CCN(CC)CCc1c[nH]c2cc(F)ccc12 [Example 6-F-DET],do not activate the 5HT2A sensor assay in agonist mode,–,–,–,–,–,–
"COc1ccc2c(c1)CCCN2CCN(C)C [Example 9, 2-(6-methoxy-3,4-dihydroquinolin-1(2H)-yl)-N,N-dimethylethan-1-amine]",–,B,B,0.101 to 1,> 10,–,–
"COc1ccc2c(ccn2[C@H]2C[C@@H](N(C)C)C2)c1 [Example 24, (1s,3s)-3-(5-methoxy-1H-indol-1-yl)-N,N-dimethylcyclobutan-1-amine]",–,A,B,> 10,> 10,–,–
"COc1ccc2c(ccn2[C@H]2C[C@H](N(C)C)C2)c1 [Example 25, (1r,3r)-3-(5-methoxy-1H-indol-1-yl)-N,N-dimethylcyclobutan-1-amine]",–,A,B,> 10,> 10,–,–
"C[C@H](Cn1ccc2cncnc21)N(C)C [Example 27, (R)—N,N-dimethyl-1-(7H-pyrrolo[2,3-d]pyrimidin-7-yl)propan-2-amine]",–,A,B,> 10,> 10,–,–
"COc1ccc2c(ccn2C[C@@H](C)N)n1 [Example 28, (R)-1-(5-methoxy-1H-pyrrolo[3,2-b]pyridin-1-yl)propan-2-amine]",–,A,B,> 10,> 10,–,–
"CN[C@H](C)Cn1ccc2nc(OC)ccc21 [Example 29, (R)-1-(5-methoxy-1H-pyrrolo[3,2-b]pyridin-1-yl)-N-methylpropan-2-amine]",–,A,B,> 10,> 10,–,–
"COc1ccc2c(ccn2C[C@@H](C)N(C)C)n1 [Example 30, (R)-1-(5-methoxy-1H-pyrrolo[3,2-b]pyridin-1-yl)-N,N-dimethylpropan-2-amine]",–,A,A,> 10,> 10,–,–
"COc1cc2ccn(C[C@@H](C)N)c2cn1 [Example 31, (R)-1-(5-methoxy-1H-pyrrolo[2,3-c]pyridin-1-yl)propan-2-amine]",–,B,B,1 to 10,1 to 10,–,–
"CN[C@H](C)Cn1ccc2cc(OC)ncc21 [Example 32, (R)-1-(5-methoxy-1H-pyrrolo[2,3-c]pyridin-1-yl)-N-methylpropan-2-amine]",–,B,B,> 10,> 10,–,–
"COc1cc2ccn(C[C@@H](C)N(C)C)c2cn1 [Example 33, (R)-1-(5-methoxy-1H-pyrrolo[2,3-c]pyridin-1-yl)-N,N-dimethylpropan-2-amine]",–,A,B,> 10,> 10,–,–
"COc1cnc2c(ccn2C[C@@H](C)N(C)C)c1 [Example 36, (R)-1-(5-methoxy-1H-pyrrolo[2,3-b]pyridin-1-yl)-N,N-dimethylpropan-2-amine]",–,B,B,> 10,> 10,–,–
"C[C@H](Cn1ccc2cnccc21)N(C)C [Example 39, (R)—N,N-dimethyl-1-(1H-pyrrolo[3,2-c]pyridin-1-yl)propan-2-amine]",–,B,B,> 10,> 10,–,–
"COc1ccc2c(ccn2C(=O)CN(C)C)c1 [Example 45, 2-(dimethylamino)-1-(5-methoxy-1H-indol-1-yl)ethan-1-one]",–,B,B,> 10,> 10,–,–
"COc1ccc2c(ccn2C(=O)[C@@H](C)N(C)C)c1 [Example 47, (R)-2-(dimethylamino)-1-(5-methoxy-1H-indol-1-yl)propan-1-one]",–,B,B,–,–,> 10,> 10
O=C(c1ccc(F)cc1)C1CCN(CCn2c(=O)[nH]c3ccccc3c2=O)CC1 [Ketanserin],do not activate the 5HT2A sensor assay in agonist mode,–,–,–,–,–,–
CNC(C)Cc1ccc2c(c1)OCO2 [L-MDMA],do not activate the 5HT2A sensor assay in agonist mode,–,–,–,–,–,–
CCN(CC)C(=O)[C@@H]1C=C2c3cccc4[nH]cc(c34)C[C@H]2N(C)C1 [LSD],activate the 5HT2A sensor assay in agonist mode,–,–,–,–,–,–
CN[C@H](C)Cc1ccc2c(c1)OCO2 [R-MDMA],do not activate the 5HT2A sensor assay in agonist mode,–,–,–,–,–,–
